Source: patent publication US20090169642A1, “RECONSTRUCTED LIVING ADIPOSE TISSUE” (priority 2005, published 2009)

Experiments:
[1] = test system: adipose-derived stromal cells; assay: Quantification of adipose differentiation by Oil Red O staining; type: cell-based, human; settings: fresh stromal cells not submitted to freezing, medium with vs without ascorbic acid
Experimental: Quantification of adipose differentiation. After 14 days of differentiation, independently of the time spent in culture before the time of adipogenic induction, Oil Red 0 (ORO) staining of the cytoplasmic neutral lipids of the droplets were performed according to a modification from [Kuri-Harcuch W et al. 1978; 75(12):6107-9, Ramirez-Zacarias J L et al. Histochemistry 1992; 97(6):493-7]. Briefly, cultures were rinsed, fixed with 10% buffered formalin, stained with 0.3% ORO in isopropanol and extracted with 4% Nonidet/isopropanol for quantification at 520 nm using a SpectraMax Plus™ spectrometer (Molecular Device) with SoftmaxPro™ Ver 4.7.1.

[2] = test system: tissue-engineered adipose sheets; assay: Lipolysis measurements (glycerol release from adipose tissue sheets); type: cell-based, human
Experimental: Lipolysis measurements. The lipolytic cell response of the adipose tissue sheets cultured for 27 days was assessed by measuring the amount of glycerol released into the incubation medium after treatment with 1 μM isoproterenol or its appropriate vehicle control. The tissues were previously incubated in serum-free medium for a minimum of 2 days to avoid interference with serum factors, and rinsed with serum-free medium before the assay. After 1, 2, 4 and 24 hours, the conditioned medium was immediately tested for the release of glycerol using an enzyme-coupled glycerol assay based on a colorimetric quantification (Sigma).

## O=C1O[C@H]([C@@H](O)CO)C(O)=C1O [ascorbic acid]
[1]
  adipocyte differentiation (ORO staining): can promote adipocyte differentiation

## CC(C)NCC(O)c1ccc(O)c(O)c1 (stereo not drawn) [Isoproterenol]
[2]; 1 μm isoproterenol, LA adipose tissue sheet cells in P3, adipocytes differentiated for 20 days, relative to basal levels
  time of peak in glycerol release post-stimulation: 2 h
[2]; isoproterenol 1 μM, adipose constructs from lipoaspirated fat in P3, 20 days of in vitro differentiation
  lipolytic activation (hydrolysis of triglycerides into fatty acids and glycerol): induced the hydrolysis of triglycerides
